Data set [1] has as its system Nucleic Acid. Nature of the data set: Ratio of drug level in brain to plasma in Sprague-Dawley rat at 10 mg/kg, po measured at 6 hrs. In kind it is ADME, organism-based. More on the design: dose 10 mg/kg, route oral.
A short description of data set [2]: Plasma concentration in Sprague-Dawley rat at 10 mg/kg, po measured at 6 hrs by LC-MS/MS analysis. The class given is ADME, organism-based. More on the design: dose 10 mg/kg, route oral.
The nature of data set [3]: Drug uptake in Sprague-Dawley rat brain at 10 mg/kg, po measured at 6 hrs by LC-MS/MS analysis. In kind it is ADME, organism-based. Set-up: dose 10 mg/kg, route oral. The settings on record: read-out: Drug uptake.
Data set [4] is described as follows: Dissociation constant, pKa of the compound. The class given is physicochemical.

Turning to `NC1=N[C@@]2(c3cc(NC(=O)c4cnc(C(F)F)cn4)ccc3F)CO[C@H](CF)[C@H]2CS1`, in data set [1], the BPR is 0.7. Moreover, the concentration at 6 h in data set [2] and in data set [3] was 570 nM each time.

In general, pKa refers to the pH at which an ionisable group is half protonated. `NC1=N[C@](c2ccc(OC(F)F)cc2)(c2cccc(OCCF)c2)C2=NCC(F)(F)CN12` returned a pKa in data set [4] of 6.5.

For the compound `NC1=N[C@@]2(c3cc(NC(=O)c4cnc(CF)cn4)ccc3F)CO[C@H](C(F)(F)F)[C@H]2CS1`, the BPR in data set [1] amounted to 3.7. For the same compound, the concentration at 6 h in data set [2] was found to be 229 nM; in data set [3], 845 nM.

`COc1cccc(-c2cccc([C@@]3(c4ccncc4)N=C(N)N4CC(F)(F)CN=C43)c2)c1F`: the pKa in data set [4] was 5.3.

For the origin of these results see ChEMBL document CHEMBL3259716, “The evolution of amidine-based brain penetrant BACE1 inhibitors” (Bioorg Med Chem Lett, 2014).
